Test results published in patent US5189043A, “Isoquinolone derivatives, their production and use” (Takeda Chemical Industries, Ltd., priority 1989, dated 1993).

Target: T1, HMG-CoA reductase of rat's liver microsome (Rattus norvegicus, UniProt P51639)
T1 construct: from tissue; host or cells: liver microsomes of male Sprague-Dawley rats fed 5% cholestyramine diet for 5 days
T1 sequence (P51639 1-887): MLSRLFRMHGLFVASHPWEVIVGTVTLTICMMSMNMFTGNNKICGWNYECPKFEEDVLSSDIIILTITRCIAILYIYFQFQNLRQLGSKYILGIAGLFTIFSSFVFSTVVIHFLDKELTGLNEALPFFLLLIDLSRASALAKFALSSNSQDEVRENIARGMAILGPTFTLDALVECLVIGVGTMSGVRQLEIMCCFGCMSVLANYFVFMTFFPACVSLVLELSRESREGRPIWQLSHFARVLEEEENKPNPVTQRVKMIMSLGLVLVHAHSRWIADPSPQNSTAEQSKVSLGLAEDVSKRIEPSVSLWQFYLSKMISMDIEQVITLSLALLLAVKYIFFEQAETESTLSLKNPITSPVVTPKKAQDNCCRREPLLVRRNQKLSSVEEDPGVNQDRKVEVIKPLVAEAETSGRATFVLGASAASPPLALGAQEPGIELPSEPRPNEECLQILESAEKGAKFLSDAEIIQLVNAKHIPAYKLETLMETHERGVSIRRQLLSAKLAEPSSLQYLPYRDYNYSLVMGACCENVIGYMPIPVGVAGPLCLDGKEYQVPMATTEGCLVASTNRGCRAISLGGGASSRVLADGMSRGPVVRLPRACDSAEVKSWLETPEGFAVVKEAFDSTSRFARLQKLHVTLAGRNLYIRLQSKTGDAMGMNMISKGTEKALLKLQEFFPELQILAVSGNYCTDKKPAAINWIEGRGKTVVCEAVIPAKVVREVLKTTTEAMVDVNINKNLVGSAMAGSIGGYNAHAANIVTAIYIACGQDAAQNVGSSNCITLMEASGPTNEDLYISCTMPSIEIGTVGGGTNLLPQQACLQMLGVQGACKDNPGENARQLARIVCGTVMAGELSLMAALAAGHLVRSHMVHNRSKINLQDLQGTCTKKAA
Test: Inhibitory action for HMG-CoA reductase of rat's liver microsome
Type: biochemical, male Sprague-Dawley rats
Settings: at 10-^6 M, rat liver microsome (cholestyramine-fed), d,l-[3-^14 C]-HMG-CoA 0.5 mM, NADPH 20 mM, 37° C. 30 minutes; for inhibition at 1 µM: 0.5 h
Experimental: Inhibitory action for HMG-CoA reductase of rat's liver microsome
5% cholestyramine diet was fed to male Sprague-Dawley rats (300-400 g of body weight) for 5 days. Activity for HMG-CoA reductase of liver microsome was measured by a variant of the method of Shapiro et al [Biochem. Biophys. Acta 370, 36(1974)]. In this method, the enzyme activity is determined by measuring the formation of ^14 C-mevalonate from a substrate [3^14 C]-HMG-CoA in the presence of NADPH. ^14 C-Mevalonate is converted into its lactone which can be isolated by silica gel thin layer chromatography developing with benzene: acetone (50:50).
In order to measure inhibitory action for HMG-CoA reductase, test compound was dissolved in dimethyl sulfoxide and the solution was diluted with a buffer solution (100 mM phosphate buffer, 20 mM EDTA.2Na, […] dithioethritol).
The resulting mixture was incubated with microsome (120 μg protein) at 30° C. for 15 minutes, and further incubated at 37° C. for 30 minutes after addition of d,l-[3-^14 C]-HMG-CoA (0.5 mM, 5000 dpm/nmol) and NADPH (20 mM).

SMILES | inhibition at 1 µM [%] | Inhibition (%)
Cc1cc(F)ccc1-c1c(/C=C/[C@@H](O)C[C@@H](O)CC(=O)O)c2ccccc2c(=O)n1C(C)C (relative stereo) [Example 5-2] | 90.4 | 
COc1cc(F)ccc1-c1c(/C=C/[C@@H](O)C[C@@H](O)CC(=O)O)c2ccccc2c(=O)n1C(C)C (relative stereo) [Example 1-2, Sodium [3R*,5S*(E)]-7-[1,2-dihydro-3-(4-fluoro-2-methoxyphenyl-2-(1-methylethyl)-1-oxo-4-isoquinolinyl]-3,5-dihydroxy-6-heptenoate] | 92 | 
CCCn1c(-c2ccc(F)cc2)c(/C=C/[C@@H](O)C[C@@H](O)CC(=O)O)c2ccccc2c1=O (relative stereo) [Example 16-2] | 96.2 | 
O=C(O)C[C@H](O)C[C@H](O)/C=C/c1c(-c2ccc(F)cc2)n(CCc2ccccc2)c(=O)c2ccccc12 (relative stereo) [Example 13-2] | 95.1 | 
COC(=O)C[C@H](O)C[C@H](O)/C=C/c1c(-c2ccc(F)cc2)n(CCc2ccccc2)c(=O)c2ccccc12 (relative stereo) [Example 13-1] | 89.6 | 
CC(C)n1c(-c2ccc(F)cc2)c(/C=C/[C@@H](O)C[C@@H](O)CC(=O)O)c2ccccc2c1=O (relative stereo) [Example 2-2, Sodium [3R*,5S*(E)]-7-[1,2-dihydro-3-(4-fluorophenyl)-2-(1-methylethyl)-1-oxo-4-isoquinolinyl]-3,5-dihydroxy-6-heptenoate] | 91.2 | 
CC[C@H](C)C(=O)O[C@H]1C[C@@H](C)C=C2C=C[C@H](C)[C@H](CC[C@@H]3C[C@@H](O)CC(=O)O3)[C@H]21 [Mevinolin, reference compound] |  | 75.5
CCCn1c(-c2ccc(F)cc2)c(/C=C/[C@@H](O)C[C@@H](O)CC(=O)OCC)c2ccccc2c1=O (relative stereo) [Example 16-1] | 94.2 | 
CCCn1c(-c2ccc(F)cc2F)c(/C=C/[C@@H](O)C[C@@H](O)CC(=O)O)c2ccccc2c1=O (relative stereo) [Example 11-2] | 90.9 | 
CCCCn1c(-c2ccc(F)cc2)c(/C=C/[C@@H](O)C[C@@H](O)CC(=O)OC)c2ccccc2c1=O (relative stereo) [Example 17-1] | 93.4 | 
CCOC(=O)C[C@H](O)C[C@H](O)/C=C/c1c(-c2ccc(F)cc2)n(C)c(=O)c2ccccc12 (relative stereo) [Example 14-1] | 91.1 | 
CCCCn1c(-c2ccc(F)cc2)c(/C=C/[C@@H](O)C[C@@H](O)CC(=O)O)c2ccccc2c1=O (relative stereo) [Example 17-2] | 95.8 | 
CCCn1c(-c2ccc(F)cc2C)c(/C=C/[C@@H](O)C[C@@H](O)CC(=O)O)c2ccccc2c1=O (relative stereo) [Example 10-2] | 90.4 | 
CCn1c(-c2ccc(F)cc2)c(/C=C/[C@@H](O)C[C@@H](O)CC(=O)OC)c2ccccc2c1=O (relative stereo) [Example 15-1] | 94.2 | 
Cn1c(-c2ccc(F)cc2)c(/C=C/[C@@H](O)C[C@@H](O)CC(=O)O)c2ccccc2c1=O (relative stereo) [Example 14-2] | 94 | 
CCn1c(-c2ccc(F)cc2)c(/C=C/[C@@H](O)C[C@@H](O)CC(=O)O)c2ccccc2c1=O (relative stereo) [Example 15-2] | 96.1 | 

Further lines, with some results ahead:

inhibition at 1 µM [%] | SMILES | Inhibition (%)
97.1 | CCCn1c(-c2ccc(F)cc2)c(/C=C/[C@@H](O)C[C@@H](O)CC(=O)O)c2ccccc2c1=O [Example 49-2, Sodium [3R, 5S(E)]-7-[1,2-dihydro-3-(4-fluorophenyl)-2-propyl-1-oxo-4-isoquinolinyl]-3,5-dihydroxy-6-heptenoate] | 
95 | CC(C)Cn1c(-c2ccc(F)cc2)c(/C=C/[C@@H](O)C[C@@H](O)CC(=O)O)c2ccccc2c1=O (relative stereo) [Example 21-2] | 
89.6 | O=C(O)C[C@H](O)C[C@H](O)/C=C/c1c(-c2ccc(F)cc2)n(Cc2ccccc2)c(=O)c2ccccc12 (relative stereo) [Example 24-2] | 
96.2 | COc1ccc(CCn2c(-c3ccc(F)cc3)c(/C=C/[C@@H](O)C[C@@H](O)CC(=O)O)c3ccccc3c2=O)cc1 (relative stereo) [Example 37-2] | 
93.2 | Cc1ccc(CCn2c(-c3ccc(F)cc3)c(/C=C/[C@@H](O)C[C@@H](O)CC(=O)O)c3ccccc3c2=O)cc1 (relative stereo) [Example 36-2] | 
95.7 | O=C(O)C[C@H](O)C[C@H](O)/C=C/c1c(-c2ccc(F)cc2)n(CCc2ccc(Cl)cc2)c(=O)c2ccccc12 (relative stereo) [Example 33-2] | 
93.3 | CC(C)n1c(-c2ccc(F)cc2)c(/C=C/[C@@H](O)C[C@@H](O)CC(=O)O)c2c(c1=O)CCCC2 (relative stereo) [Example 47-2] | 
90.7 | CCCCCn1c(-c2ccc(F)cc2)c(/C=C/[C@@H](O)C[C@@H](O)CC(=O)OC)c2ccccc2c1=O (relative stereo) [Example 18-1] | 
92.5 | CCCn1c(-c2ccc(F)cc2)c(/C=C/[C@@H]2C[C@@H](O)CC(=O)O2)c2ccccc2c1=O [Example 49-3] | 
94.1 | CSCCn1c(-c2ccc(F)cc2)c(/C=C/[C@@H](O)C[C@@H](O)CC(=O)O)c2ccccc2c1=O (relative stereo) [Example 42-2] | 
88 | CCCCCCCn1c(-c2ccc(F)cc2)c(/C=C/[C@@H](O)C[C@@H](O)CC(=O)O)c2ccccc2c1=O (relative stereo) [Example 19-2] | 
90.6 | C=CCn1c(-c2ccc(F)cc2)c(/C=C/[C@@H](O)C[C@@H](O)CC(=O)O)c2ccccc2c1=O (relative stereo) [Example 43-2] | 
95.9 | COc1ccccc1CCn1c(-c2ccc(F)cc2)c(/C=C/[C@@H](O)C[C@@H](O)CC(=O)O)c2ccccc2c1=O (relative stereo) [Example 38-2] | 
89.6 | O=C(O)C[C@H](O)C[C@H](O)/C=C/c1c(-c2ccc(F)cc2)n(CCCc2ccccc2)c(=O)c2ccccc12 (relative stereo) [Example 32-2] | 
88.2 | COCCn1c(-c2ccc(F)cc2)c(/C=C/[C@@H](O)C[C@@H](O)CC(=O)O)c2ccccc2c1=O (relative stereo) [Example 41-2] | 
96.5 | CCCCCn1c(-c2ccc(F)cc2)c(/C=C/[C@@H](O)C[C@@H](O)CC(=O)O)c2ccccc2c1=O (relative stereo) [Example 18-2] | 
96.9 | O=C(O)C[C@H](O)C[C@H](O)/C=C/c1c(-c2ccc(F)cc2)n(CCc2ccc(F)cc2)c(=O)c2ccccc12 (relative stereo) [Example 35-2] | 
91.3 | COC(=O)C[C@H](O)C[C@H](O)/C=C/c1c(-c2ccc(F)cc2)n(CC(C)C)c(=O)c2ccccc12 (relative stereo) [Example 21-1] | 
92.6 | O=C(O)C[C@H](O)C[C@H](O)/C=C/c1c(-c2ccc(F)cc2)n(CCc2ccccc2F)c(=O)c2ccccc12 (relative stereo) [Example 40-2] | 
96.6 | CCCn1c(-c2ccc(F)cc2)c(/C=C/[C@@H](O)C[C@@H](O)CC(=O)O)c2c(c1=O)CCCC2 (relative stereo) [Example 48-2] | 
91.7 | O=C(O)C[C@H](O)C[C@H](O)/C=C/c1c(-c2ccc(F)cc2)n(CCc2cccc(F)c2)c(=O)c2ccccc12 (relative stereo) [Example 39-2] | 
